Experimental data from PubChem BioAssay AID248 (DTP/NCI, 2004).
Several values for one entry are separate records, joined by “and”; a condition that tells them apart may be missing. Equal entries are not always repeated. Inconclusive results and toxic doses are left out.

Tested on: L1210 leukemia ip in BDF1 mice, survival T/C
Assay: NCI In Vivo Anticancer Drug Screen. Data for tumor model L1210 Leukemia (intraperitoneal) in B6D2F1 (BDF1) mice
Conditions: higher = longer survival
Outline: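 Tumor was transplanted into mice, which were then dosed with test compound or vehicle alone. Survival was recorded for each group, and the treated figure was expressed relative to the control figure.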

Question: For `CCOC(=O)C1(C(=O)OCC)CCC(OCC)N1C(=O)c1cc2c(cc1[N+](=O)[O-])OCO2` (centres undefined), which T/C (endpoint: mean survival time, dose: 100.0 mg/kg/injection, schedule: Q04DX003 (ip), vehicle: Klucel (hydroxypropylcellulose) (HPC)) is on record?
Answer: Its T/C is 99 % of control.

Question: And the T/C (endpoint: mean survival time, dose: 200.0 mg/kg/injection, schedule: Q04DX003 (ip), vehicle: Klucel (hydroxypropylcellulose) (HPC))?
Answer: The T/C was 105 % of control.

Question: What about the T/C (endpoint: mean survival time, dose: 400.0 mg/kg/injection, schedule: Q04DX003 (ip), vehicle: Klucel (hydroxypropylcellulose) (HPC)) of the same molecule?
Answer: Its T/C is 97 % of control.

Question: With `CC1CC(C)(C)N=C(C2(c3ccccc3)CC2)O1` (centres undefined) as the molecule, how does the T/C (endpoint: mean survival time, dose: 25.0 mg/kg/injection, schedule: Q01DX009 (ip), vehicle: saline with Tween-80) read?
Answer: Its T/C is 102 % of control.

Question: What about the T/C (endpoint: mean survival time, dose: 50.0 mg/kg/injection, schedule: Q01DX009 (ip), vehicle: saline with Tween-80) of the same molecule?
Answer: Its T/C is 98 % of control.

Question: What about the T/C (endpoint: mean survival time, dose: 50.0 mg/kg/injection, schedule: Q04DX003 (ip), vehicle: saline with Tween-80) of the same molecule?
Answer: The T/C was 88 % of control.

Question: What about the T/C (endpoint: mean survival time, dose: 100.0 mg/kg/injection, schedule: Q01DX009 (ip), vehicle: saline with Tween-80) of the same molecule?
Answer: The T/C was 100 % of control.

Question: What about the T/C (endpoint: mean survival time, dose: 100.0 mg/kg/injection, schedule: Q04DX003 (ip), vehicle: saline with Tween-80) of the same molecule?
Answer: Its T/C is 95 % of control.

Question: What about the T/C (endpoint: mean survival time, dose: 200.0 mg/kg/injection, schedule: Q01DX009 (ip), vehicle: saline with Tween-80) of the same molecule?
Answer: The T/C was 98 % of control.

Question: With `[Cu+2].[NH-]C(CS)C(=O)O.[NH-]C(CS)C(=O)O` (centres undefined) as the molecule, how does the T/C (endpoint: mean survival time, dose: 3.13 mg/kg/injection, schedule: Q04DX002 (ip), vehicle: saline with Tween-80) read?
Answer: The T/C was 97 % of control.

Question: What about the T/C (endpoint: mean survival time, dose: 6.25 mg/kg/injection, schedule: Q04DX002 (ip), vehicle: saline with Tween-80) of the same molecule?
Answer: The T/C was 93 % of control and 90 % of control.

Question: What about the T/C (endpoint: mean survival time, dose: 25.0 mg/kg/injection, schedule: Q04DX002 (ip), vehicle: saline with Tween-80) of the same molecule?
Answer: The T/C was 90 % of control.

Question: And the T/C (endpoint: mean survival time, dose: 125.0 mg/kg/injection, schedule: Q04DX002 (ip), vehicle: saline with Tween-80)?
Answer: The T/C was 93 % of control.

Question: How did the T/C (endpoint: mean survival time, dose: 100.0 mg/kg/injection, schedule: Q01DX009 (ip), vehicle: gum acacia) turn out when `CC(=O)c1cc2ccccc2oc1=O` was run?
Answer: The T/C was 117 % of control.

Question: And the T/C (endpoint: mean survival time, dose: 200.0 mg/kg/injection, schedule: Q01DX009 (ip), vehicle: gum acacia)?
Answer: The T/C was 108 % of control.

Question: What about the T/C (endpoint: mean survival time, dose: 400.0 mg/kg/injection, schedule: Q01DX009 (ip), vehicle: gum acacia) of the same molecule?
Answer: Its T/C is 107 % of control.

Question: With `CC(=O)NC(Cc1ccsc1)(C(=O)O)C(=O)O` as the molecule, how does the T/C (endpoint: mean survival time, dose: 100.0 mg/kg/injection, schedule: Q01DX001 (ip), vehicle: saline) read?
Answer: Its T/C is 93 % of control.

Question: And the T/C (endpoint: mean survival time, dose: 200.0 mg/kg/injection, schedule: Q01DX001 (ip), vehicle: saline)?
Answer: The T/C was 98 % of control.

Question: What about the T/C (endpoint: mean survival time, dose: 400.0 mg/kg/injection, schedule: Q01DX001 (ip), vehicle: saline) of the same molecule?
Answer: The T/C was 98 % of control.

Question: What does the source list for `COc1cccc2c1C(=O)c1c(O)c3c(c(O)c1C2=O)C[C@@](O)(/C(C)=N/NC(=O)c1ccccc1)C[C@@H]3OC1CC(N)C(O)C(C)O1` (some centres undefined)?
Answer: T/C (endpoint: mean survival time, dose: 0.25 mg/kg/injection, schedule: Q04DX003 (ip), vehicle: water): 110 % of control; T/C (endpoint: mean survival time, dose: 0.5 mg/kg/injection, schedule: Q04DX003 (ip), vehicle: water): 111 % of control; T/C (endpoint: mean survival time, dose: 1.0 mg/kg/injection, schedule: Q04DX003 (ip), vehicle: water): 117 % of control; T/C (endpoint: mean survival time, dose: 4.0 mg/kg/injection, schedule: Q04DX003 (ip), vehicle: water): 124 % of control; T/C (endpoint: mean survival time, dose: 8.0 mg/kg/injection, schedule: Q04DX003 (ip), vehicle: water): 151 % of control; T/C (endpoint: mean survival time, dose: 16.0 mg/kg/injection, schedule: Q04DX003 (ip), vehicle: water): 179 % of control and 205 % of control; T/C (endpoint: mean survival time, dose: 24.0 mg/kg/injection, schedule: Q04DX003 (ip), vehicle: water): 120 % of control; T/C (endpoint: median survival time, dose: 0.25 mg/kg/injection, schedule: Q01DX009 (ip), vehicle: water): 94 % of control; T/C (endpoint: median survival time, dose: 0.25 mg/kg/injection, schedule: Q03HX024 (ip), vehicle: water): 105 % of control; T/C (endpoint: median survival time, dose: 0.5 mg/kg/injection, schedule: Q01DX009 (ip), vehicle: water): 110 % of control; T/C (endpoint: median survival time, dose: 0.5 mg/kg/injection, schedule: Q03HX024 (ip), vehicle: water): 110 % of control; T/C (endpoint: median survival time, dose: 0.78 mg/kg/injection, schedule: Q03HX008 (ip), vehicle: water): 122 % of control; T/C (endpoint: median survival time, dose: 0.78 mg/kg/injection, schedule: Q03HX024 (ip), vehicle: water): 111 % of control; T/C (endpoint: median survival time, dose: 1.0 mg/kg/injection, schedule: Q01DX009 (ip), vehicle: water): 115 % of control; T/C (endpoint: median survival time, dose: 1.0 mg/kg/injection, schedule: Q03HX008 (ip), vehicle: water): 115 % of control; T/C (endpoint: median survival time, dose: 1.17 mg/kg/injection, schedule: Q03HX024 (ip), vehicle: water): 100 % of control; T/C (endpoint: median survival time, dose: 1.2 mg/kg/injection, schedule: Q01DX009 (ip), vehicle: water): 105 % of control; T/C (endpoint: median survival time, dose: 1.2 mg/kg/injection, schedule: Q03HX008 (ip), vehicle: water): 105 % of control; T/C (endpoint: median survival time, dose: 1.25 mg/kg/injection, schedule: Q04DX003 (ip), vehicle: water): 105 % of control; T/C (endpoint: median survival time, dose: 1.75 mg/kg/injection, schedule: Q01DX009 (ip), vehicle: water): 94 % of control; T/C (endpoint: median survival time, dose: 1.75 mg/kg/injection, schedule: Q03HX024 (ip), vehicle: water): 111 % of control; T/C (endpoint: median survival time, dose: 2.0 mg/kg/injection, schedule: Q01DX009 (ip), vehicle: water): 110 % of control; T/C (endpoint: median survival time, dose: 2.5 mg/kg/injection, schedule: Q01DX001 (ip), vehicle: water): 115 % of control; T/C (endpoint: median survival time, dose: 2.5 mg/kg/injection, schedule: Q04DX003 (ip), vehicle: water): 121 % of control; T/C (endpoint: median survival time, dose: 2.6 mg/kg/injection, schedule: Q01DX009 (ip), vehicle: water): 122 % of control; T/C (endpoint: median survival time, dose: 2.6 mg/kg/injection, schedule: Q03HX008 (ip), vehicle: water): 105 % of control; T/C (endpoint: median survival time, dose: 2.6 mg/kg/injection, schedule: Q03HX024 (ip), vehicle: water): 94 % of control; T/C (endpoint: median survival time, dose: 2.6 mg/kg/injection, schedule: Q04DX003 (ip), vehicle: water): 111 % of control; T/C (endpoint: median survival time, dose: 3.9 mg/kg/injection, schedule: Q01DX001 (ip), vehicle: water): 111 % of control; T/C (endpoint: median survival time, dose: 3.9 mg/kg/injection, schedule: Q01DX009 (ip), vehicle: water): 122 % of control; T/C (endpoint: median survival time, dose: 3.9 mg/kg/injection, schedule: Q03HX008 (ip), vehicle: water): 100 % of control; T/C (endpoint: median survival time, dose: 3.9 mg/kg/injection, schedule: Q03HX024 (ip), vehicle: water): 88 % of control; T/C (endpoint: median survival time, dose: 3.9 mg/kg/injection, schedule: Q04DX003 (ip), vehicle: water): 111 % of control; T/C (endpoint: median survival time, dose: 4.0 mg/kg/injection, schedule: Q03HX008 (ip), vehicle: water): 152 % of control; T/C (endpoint: median survival time, dose: 5.0 mg/kg/injection, schedule: Q01DX001 (ip), vehicle: water): 115 % of control; T/C (endpoint: median survival time, dose: 5.0 mg/kg/injection, schedule: Q04DX003 (ip), vehicle: water): 105 % of control; T/C (endpoint: median survival time, dose: 5.9 mg/kg/injection, schedule: Q01DX001 (ip), vehicle: water): 100 % of control; T/C (endpoint: median survival time, dose: 5.9 mg/kg/injection, schedule: Q04DX003 (ip), vehicle: water): 100 % of control; T/C (endpoint: median survival time, dose: 8.9 mg/kg/injection, schedule: Q01DX001 (ip), vehicle: water): 122 % of control; T/C (endpoint: median survival time, dose: 8.9 mg/kg/injection, schedule: Q01DX009 (ip), vehicle: water): 94 % of control; T/C (endpoint: median survival time, dose: 8.9 mg/kg/injection, schedule: Q04DX003 (ip), vehicle: water): 111 % of control; T/C (endpoint: median survival time, dose: 10.0 mg/kg/injection, schedule: Q01DX001 (ip), vehicle: water): 115 % of control; T/C (endpoint: median survival time, dose: 10.0 mg/kg/injection, schedule: Q04DX003 (ip), vehicle: water): 163 % of control; T/C (endpoint: median survival time, dose: 13.3 mg/kg/injection, schedule: Q01DX001 (ip), vehicle: water): 111 % of control; T/C (endpoint: median survival time, dose: 13.3 mg/kg/injection, schedule: Q04DX003 (ip), vehicle: water): 105 % of control; T/C (endpoint: median survival time, dose: 20.0 mg/kg/injection, schedule: Q01DX001 (ip), vehicle: water): 157 % of control; T/C (endpoint: median survival time, dose: 20.0 mg/kg/injection, schedule: Q04DX003 (ip), vehicle: water): 100 % of control; T/C (endpoint: median survival time, dose: 20.0 mg/kg/injection, schedule: Q08DX002 (ip), vehicle: water): 89 % of control

Question: For `CNC(=N)c1ccc(NC(=N)c2ccc(NC(=N)c3ccc(NC(=O)c4ccc(C(=N)NC)cc4)cc3)cc2)cc1`, which T/C (endpoint: mean survival time, dose: 3.75 mg/kg/injection, schedule: Q01DX015 (ip), vehicle: water) is on record?
Answer: The T/C was 104 % of control.

Question: And the T/C (endpoint: mean survival time, dose: 7.5 mg/kg/injection, schedule: Q01DX015 (ip), vehicle: water)?
Answer: The T/C was 101 % of control.

Question: And the T/C (endpoint: mean survival time, dose: 15.0 mg/kg/injection, schedule: Q01DX015 (ip), vehicle: water)?
Answer: The T/C was 108 % of control.

Question: And the T/C (endpoint: mean survival time, dose: 20.0 mg/kg/injection, schedule: Q01DX Z (ip), vehicle: water)?
Answer: The T/C was 177 % of control.

Question: And the T/C (endpoint: mean survival time, dose: 30.0 mg/kg/injection, schedule: Q01DX015 (ip), vehicle: water)?
Answer: Its T/C is 176 % of control and 180 % of control.

Question: What about the T/C (endpoint: mean survival time, dose: 50.0 mg/kg/injection, schedule: Q01DX015 (ip), vehicle: water) of the same molecule?
Answer: The T/C was 97 % of control.

Question: `Nc1cccc(S(=O)(=O)N(CCO)CCO)c1` was tested. Which T/C (endpoint: mean survival time, dose: 100.0 mg/kg/injection, schedule: Q04DX003 (ip), vehicle: saline) did it give?
Answer: Its T/C is 90 % of control.

Question: And the T/C (endpoint: mean survival time, dose: 200.0 mg/kg/injection, schedule: Q04DX003 (ip), vehicle: saline)?
Answer: Its T/C is 95 % of control.

Question: And the T/C (endpoint: mean survival time, dose: 400.0 mg/kg/injection, schedule: Q04DX003 (ip), vehicle: saline)?
Answer: The T/C was 94 % of control.

Question: What does the source list for `SC12CC3CC(CC(C3)C1)C2`?
Answer: T/C (endpoint: mean survival time, dose: 100.0 mg/kg/injection, schedule: Q04DX002 (ip), vehicle: Klucel (hydroxypropylcellulose) (HPC)): 87 % of control; T/C (endpoint: mean survival time, dose: 200.0 mg/kg/injection, schedule: Q04DX002 (ip), vehicle: Klucel (hydroxypropylcellulose) (HPC)): 94 % of control; T/C (endpoint: mean survival time, dose: 400.0 mg/kg/injection, schedule: Q04DX002 (ip), vehicle: Klucel (hydroxypropylcellulose) (HPC)): 98 % of control
